The target in one series is Dipeptidyl peptidase 8 (Homo sapiens, UniProt Q6V1X1). The experiment in a line: Inhibition of DPP8.
Another series deals with Dipeptidyl peptidase 9 (Homo sapiens, UniProt Q86TI2). The series can be described thus: Inhibition of DPP9.
A further series deals with Dipeptidyl peptidase 2 (Homo sapiens, UniProt Q9UHL4). The series can be described thus: Inhibition of QPP.
The next series has as its target Dipeptidyl peptidase 4 (Homo sapiens, UniProt P27487). The series can be described thus: Inhibition of DPP4.
Series [1] is described as follows: Plasma clearance in rat at 1 mg/kg, iv and 2 mg/kg, po. Format: ADME, organism-based.
Series [2] in a line: Half life in rat at 1 mg/kg, iv and 2 mg/kg, po. Format: ADME, organism-based. The note with it: in vivo.
Series [3] in a line: Oral bioavailability in rat at 1 mg/kg, iv and 2 mg/kg, po. Format: ADME, organism-based. The note with it: in vivo.
The target of series [4] is Voltage-gated inwardly rectifying potassium channel KCNH2 (Homo sapiens, UniProt Q12809). The series can be described thus: Inhibition of hERG potassium channel. The format is toxicity. (In general: hERG is a cardiac potassium channel; its block is linked to QT prolongation.)
A further series is filed under the species Homo sapiens. The series can be described thus: Selectivity for DPP4 over QPP.
A short description of series [5]: Oral bioavailability in dog. As to conditions: in vivo. The format is ADME, organism-based, Canis lupus familiaris.
Series [6] in a line: Half life in dog. As to conditions: in vivo. The format is ADME, organism-based, Canis lupus familiaris.

Sequence of Dipeptidyl peptidase 8 (Q6V1X1 whole entry): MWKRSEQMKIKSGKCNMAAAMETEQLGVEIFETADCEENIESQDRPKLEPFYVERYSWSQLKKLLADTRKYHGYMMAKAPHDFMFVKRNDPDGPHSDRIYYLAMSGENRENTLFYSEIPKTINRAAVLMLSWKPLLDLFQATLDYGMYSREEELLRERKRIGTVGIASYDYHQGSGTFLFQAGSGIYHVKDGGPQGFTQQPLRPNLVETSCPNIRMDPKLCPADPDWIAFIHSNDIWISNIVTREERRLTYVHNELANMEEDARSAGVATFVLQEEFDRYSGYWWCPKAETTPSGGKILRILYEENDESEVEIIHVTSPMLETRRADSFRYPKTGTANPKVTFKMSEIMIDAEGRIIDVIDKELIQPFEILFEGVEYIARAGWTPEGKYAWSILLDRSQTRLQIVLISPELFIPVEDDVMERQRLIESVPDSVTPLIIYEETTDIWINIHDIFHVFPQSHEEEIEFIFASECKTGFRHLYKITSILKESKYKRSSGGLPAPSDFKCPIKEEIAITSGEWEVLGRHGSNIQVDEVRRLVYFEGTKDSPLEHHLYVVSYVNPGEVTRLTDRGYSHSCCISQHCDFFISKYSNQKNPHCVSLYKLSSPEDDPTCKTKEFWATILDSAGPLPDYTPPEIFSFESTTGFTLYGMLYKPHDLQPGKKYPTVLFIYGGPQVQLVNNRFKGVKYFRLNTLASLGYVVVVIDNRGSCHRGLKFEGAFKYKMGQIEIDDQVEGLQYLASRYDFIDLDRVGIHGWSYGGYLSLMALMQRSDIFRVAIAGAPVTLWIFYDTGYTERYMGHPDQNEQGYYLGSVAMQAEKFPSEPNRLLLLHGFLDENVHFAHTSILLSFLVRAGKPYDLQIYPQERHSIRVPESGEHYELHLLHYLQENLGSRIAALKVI
Sequence of Dipeptidyl peptidase 4 (P27487 whole entry): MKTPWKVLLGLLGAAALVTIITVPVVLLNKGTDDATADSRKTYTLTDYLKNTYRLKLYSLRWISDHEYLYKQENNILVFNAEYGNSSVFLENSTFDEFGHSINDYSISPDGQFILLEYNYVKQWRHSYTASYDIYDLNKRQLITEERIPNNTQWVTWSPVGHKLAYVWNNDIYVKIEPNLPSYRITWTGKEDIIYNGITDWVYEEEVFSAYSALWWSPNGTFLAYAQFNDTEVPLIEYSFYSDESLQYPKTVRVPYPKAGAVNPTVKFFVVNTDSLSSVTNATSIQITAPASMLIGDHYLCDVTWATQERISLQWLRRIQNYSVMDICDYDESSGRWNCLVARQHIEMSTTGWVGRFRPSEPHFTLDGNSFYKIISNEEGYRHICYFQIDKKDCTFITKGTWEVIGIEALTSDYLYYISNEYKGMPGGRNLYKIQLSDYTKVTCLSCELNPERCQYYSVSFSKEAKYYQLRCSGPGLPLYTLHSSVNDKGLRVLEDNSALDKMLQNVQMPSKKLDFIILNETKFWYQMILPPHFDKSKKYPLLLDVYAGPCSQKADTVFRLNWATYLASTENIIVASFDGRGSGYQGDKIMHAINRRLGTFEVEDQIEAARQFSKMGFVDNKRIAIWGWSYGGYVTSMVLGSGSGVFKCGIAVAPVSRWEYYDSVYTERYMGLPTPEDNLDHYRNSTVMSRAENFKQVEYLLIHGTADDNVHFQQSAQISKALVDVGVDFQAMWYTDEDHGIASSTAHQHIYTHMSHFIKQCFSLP
Sequence of Dipeptidyl peptidase 9 (Q86TI2 whole entry): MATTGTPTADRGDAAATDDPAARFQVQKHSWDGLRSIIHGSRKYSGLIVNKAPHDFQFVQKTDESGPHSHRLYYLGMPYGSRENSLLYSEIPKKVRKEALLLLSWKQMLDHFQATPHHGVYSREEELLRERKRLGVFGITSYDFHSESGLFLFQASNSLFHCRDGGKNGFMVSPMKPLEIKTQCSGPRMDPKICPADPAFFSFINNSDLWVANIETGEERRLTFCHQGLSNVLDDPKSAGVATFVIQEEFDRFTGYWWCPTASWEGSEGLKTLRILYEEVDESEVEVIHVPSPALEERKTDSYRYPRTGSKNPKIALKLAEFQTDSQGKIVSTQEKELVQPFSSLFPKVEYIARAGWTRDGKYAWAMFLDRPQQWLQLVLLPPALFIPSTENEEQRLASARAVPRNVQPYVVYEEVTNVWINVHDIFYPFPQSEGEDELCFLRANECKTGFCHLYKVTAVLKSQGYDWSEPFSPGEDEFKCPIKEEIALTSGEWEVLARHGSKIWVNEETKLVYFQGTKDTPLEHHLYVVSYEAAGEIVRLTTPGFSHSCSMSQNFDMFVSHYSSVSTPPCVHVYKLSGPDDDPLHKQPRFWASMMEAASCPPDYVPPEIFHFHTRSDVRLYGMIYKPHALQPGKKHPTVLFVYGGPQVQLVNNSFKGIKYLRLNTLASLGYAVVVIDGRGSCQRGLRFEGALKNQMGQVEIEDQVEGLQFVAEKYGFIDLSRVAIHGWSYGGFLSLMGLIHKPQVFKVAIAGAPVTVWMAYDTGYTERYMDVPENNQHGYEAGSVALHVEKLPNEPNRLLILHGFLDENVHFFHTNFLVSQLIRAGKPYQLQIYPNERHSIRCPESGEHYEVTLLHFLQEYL
Sequence of Voltage-gated inwardly rectifying potassium channel KCNH2 (Q12809 whole entry): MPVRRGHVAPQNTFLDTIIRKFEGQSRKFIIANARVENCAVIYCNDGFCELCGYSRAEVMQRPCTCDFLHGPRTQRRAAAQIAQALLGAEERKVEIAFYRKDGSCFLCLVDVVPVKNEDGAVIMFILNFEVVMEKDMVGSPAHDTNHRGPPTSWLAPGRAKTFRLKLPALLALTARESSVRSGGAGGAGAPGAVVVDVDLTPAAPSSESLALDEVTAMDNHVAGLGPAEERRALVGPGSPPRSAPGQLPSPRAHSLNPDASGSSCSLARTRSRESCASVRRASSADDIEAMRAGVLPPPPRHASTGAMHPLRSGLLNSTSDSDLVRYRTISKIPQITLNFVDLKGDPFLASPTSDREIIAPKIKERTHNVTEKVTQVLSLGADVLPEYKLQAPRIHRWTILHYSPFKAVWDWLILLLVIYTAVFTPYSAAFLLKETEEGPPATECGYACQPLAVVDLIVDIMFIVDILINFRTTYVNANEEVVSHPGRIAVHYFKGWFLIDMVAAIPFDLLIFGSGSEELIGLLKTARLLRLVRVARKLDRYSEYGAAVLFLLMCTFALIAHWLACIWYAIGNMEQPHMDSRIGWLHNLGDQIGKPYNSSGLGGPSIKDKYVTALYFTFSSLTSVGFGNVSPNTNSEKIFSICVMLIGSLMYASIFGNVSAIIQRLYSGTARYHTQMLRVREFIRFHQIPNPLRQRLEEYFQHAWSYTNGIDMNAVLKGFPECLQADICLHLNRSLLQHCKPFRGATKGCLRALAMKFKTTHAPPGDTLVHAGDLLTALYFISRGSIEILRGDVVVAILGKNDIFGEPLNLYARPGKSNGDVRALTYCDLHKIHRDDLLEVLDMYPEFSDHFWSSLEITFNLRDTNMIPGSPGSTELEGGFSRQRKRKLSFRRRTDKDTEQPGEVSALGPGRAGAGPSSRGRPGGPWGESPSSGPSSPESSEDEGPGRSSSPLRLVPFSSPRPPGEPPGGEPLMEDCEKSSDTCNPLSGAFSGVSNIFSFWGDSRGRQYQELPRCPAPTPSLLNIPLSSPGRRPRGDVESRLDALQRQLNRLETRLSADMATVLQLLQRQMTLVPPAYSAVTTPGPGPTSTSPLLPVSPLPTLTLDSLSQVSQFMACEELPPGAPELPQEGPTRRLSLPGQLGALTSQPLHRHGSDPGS

A word on the IC50: it is the concentration that gives 50% inhibition. Read a high IC50 as weaker potency. As to `C[C@H](c1nc(-c2ccc(NS(C)(=O)=O)cc2Cl)no1)[C@H](N)C(=O)N1CCC(F)(F)C1`, the IC50 on Dipeptidyl peptidase 8 is greater than 100 µM; against Dipeptidyl peptidase 9, greater than 100 µM; against Dipeptidyl peptidase 2, 0.16 µM; on Dipeptidyl peptidase 4, 19 nM.
Regarding `C[C@H](c1nc(-c2ccccc2C(F)F)no1)[C@H](N)C(=O)N1CCCC1`, the half-maximal inhibitory concentration (IC50) against Dipeptidyl peptidase 8 was greater than 100 µM; on Dipeptidyl peptidase 9 it was greater than 100 µM; at Dipeptidyl peptidase 2 it was 1 µM; at Dipeptidyl peptidase 4, 1820 nM.
`C[C@H](c1nc(-c2ccc(Cl)cc2)no1)[C@H](N)C(=O)N1CCCC1`: the IC50 at Dipeptidyl peptidase 8 was greater than 100 µM; on Dipeptidyl peptidase 9, greater than 100 µM; at Dipeptidyl peptidase 2, 3.8 µM; on Dipeptidyl peptidase 4 it was 3820 nM.
`C[C@H](c1nc(-c2cc(Cl)cc(Cl)c2)no1)[C@H](N)C(=O)N1CCCC1`: the IC50 against Dipeptidyl peptidase 8 was greater than 100 µM; against Dipeptidyl peptidase 9, greater than 100 µM; against Dipeptidyl peptidase 2, 2.5 µM; on Dipeptidyl peptidase 4, 7360 nM.
On to `C[C@H](c1nc(-c2ccccc2C(F)(F)F)no1)[C@H](N)C(=O)N1CCCC1`, for which the IC50 is greater than 100 µM against Dipeptidyl peptidase 8, greater than 100 µM on Dipeptidyl peptidase 9, 1.8 µM against Dipeptidyl peptidase 2 and 4820 nM on Dipeptidyl peptidase 4.
For the compound `C[C@H](c1noc(-c2ccc(Cl)cc2Cl)n1)[C@H](N)C(=O)N1CCCC1`, the IC50 was greater than 100 µM at Dipeptidyl peptidase 8, greater than 100 µM against Dipeptidyl peptidase 9, 4.2 µM against Dipeptidyl peptidase 2 and 1210 nM against Dipeptidyl peptidase 4.
As for `C[C@H](c1nc(-c2ccc(NS(C)(=O)=O)cc2)no1)[C@H](N)C(=O)N1CCCC1`, the IC50 is greater than 100 µM at Dipeptidyl peptidase 8, greater than 100 µM on Dipeptidyl peptidase 9, 5.4 µM on Dipeptidyl peptidase 2 and 520 nM on Dipeptidyl peptidase 4.
Consider `C[C@H](c1nc(-c2ccccc2)no1)[C@H](N)C(=O)N1CCCC1`, for which the IC50 at Dipeptidyl peptidase 8 was greater than 100 µM; against Dipeptidyl peptidase 9 it was greater than 100 µM; against Dipeptidyl peptidase 2, 5.7 µM; against Dipeptidyl peptidase 4 it was 19700 nM.
For the compound `C[C@H](c1nc(-c2ccc(NS(C)(=O)=O)cc2Cl)no1)[C@H](N)C(=O)N1CC[C@@H](F)C1`, the IC50 on Dipeptidyl peptidase 8 is greater than 100 µM; on Dipeptidyl peptidase 9, greater than 100 µM; at Dipeptidyl peptidase 2, 1.7 µM; at Dipeptidyl peptidase 4, 19 nM.
Regarding `Cc1cc(S(C)(=O)=O)ccc1-c1noc([C@@H](CC2CC2)[C@H](N)C(=O)N2CC[C@H](F)C2)n1`, the IC50 on Dipeptidyl peptidase 8 was greater than 100 µM; against Dipeptidyl peptidase 9, greater than 100 µM; against Dipeptidyl peptidase 2 it was 2.92 µM; against Dipeptidyl peptidase 4 it was 31 nM.
In the case of `C[C@H](c1nc(-c2ccccc2OC(F)(F)F)no1)[C@H](N)C(=O)N1CCCC1`, the IC50 on Dipeptidyl peptidase 8 is greater than 100 µM; at Dipeptidyl peptidase 9 it was greater than 100 µM; against Dipeptidyl peptidase 2, 2.5 µM; on Dipeptidyl peptidase 4, 12400 nM.
In the case of `C[C@H](c1nc(-c2ccc(Br)cc2Cl)no1)[C@H](N)C(=O)N1CCCC1`, the IC50 on Dipeptidyl peptidase 8 is greater than 100 µM; against Dipeptidyl peptidase 9 it was greater than 100 µM; against Dipeptidyl peptidase 2 it was 1.3 µM; at Dipeptidyl peptidase 4, 160 nM.
As to `CS(=O)(=O)c1ccc(-c2noc([C@@H](CCO)[C@H](N)C(=O)N3CC[C@H](F)C3)n2)c(Cl)c1`, the IC50 against Dipeptidyl peptidase 8 and against Dipeptidyl peptidase 9 was greater than 100 µM each time.
Turning to `C[C@H](c1nc(-c2ccc(F)cc2F)no1)[C@H](N)C(=O)N1CCCC1`, the IC50 at Dipeptidyl peptidase 8 is greater than 100 µM; on Dipeptidyl peptidase 9, greater than 100 µM; at Dipeptidyl peptidase 2, 8.1 µM; on Dipeptidyl peptidase 4 it was 4590 nM.
Consider `C[C@H](c1nc(-c2cccc(C(F)(F)F)c2)no1)[C@H](N)C(=O)N1CCCC1`, for which the 50% inhibitory concentration (IC50) on Dipeptidyl peptidase 8 was greater than 100 µM; against Dipeptidyl peptidase 9, greater than 100 µM; against Dipeptidyl peptidase 2, 4.3 µM; at Dipeptidyl peptidase 4, 15600 nM.
With `C[C@H](c1nc(-c2ccc(S(C)(=O)=O)cc2)no1)[C@H](N)C(=O)N1CCCC1`, the IC50 against Dipeptidyl peptidase 8 and against Dipeptidyl peptidase 9 was greater than 100 µM throughout.
As for `C[C@H](c1nc(-c2ccc(S(N)(=O)=O)cc2)no1)[C@H](N)C(=O)N1CCCC1`, the concentration for half-maximal inhibition (IC50) against Dipeptidyl peptidase 8 is greater than 100 µM; against Dipeptidyl peptidase 9, greater than 100 µM; against Dipeptidyl peptidase 2, 26.8 µM; on Dipeptidyl peptidase 4, 190 nM.
On to `C[C@H](c1nc(-c2ccccc2F)no1)[C@H](N)C(=O)N1CCCC1`, for which the IC50 was greater than 100 µM on Dipeptidyl peptidase 8, greater than 100 µM against Dipeptidyl peptidase 9, 4.5 µM against Dipeptidyl peptidase 2 and 4790 nM against Dipeptidyl peptidase 4.
`C[C@H](c1nnc(-c2ccc(Cl)cc2Cl)o1)[C@H](N)C(=O)N1CCCC1`: the 50% inhibitory concentration (IC50) at Dipeptidyl peptidase 8 was greater than 100 µM; on Dipeptidyl peptidase 9, greater than 100 µM; against Dipeptidyl peptidase 2, 0.85 µM; against Dipeptidyl peptidase 4, 560 nM.
Turning to `C[C@H](c1n[nH]c(-c2ccc(Cl)cc2Cl)n1)[C@H](N)C(=O)N1CCCC1`, the IC50 was greater than 100 µM against Dipeptidyl peptidase 8, greater than 100 µM against Dipeptidyl peptidase 9, 5.41 µM against Dipeptidyl peptidase 2 and 3050 nM against Dipeptidyl peptidase 4.
What is called half-life is the time in which the quantity being followed falls by half. A higher half-life goes with slow decline. In general, bioavailability refers to dose-corrected exposure relative to a reference, in per cent. Read a low bioavailability as poor availability. As for `C[C@H](c1nc(-c2ccc(Cl)cc2Cl)no1)[C@H](N)C(=O)N1CCCC1.O=C(O)C(F)(F)F`, the clearance in [1] is 13.8 mL/min/kg. Also, the figures for the half-maximal inhibitory concentration (IC50) (against Dipeptidyl peptidase 8; at Dipeptidyl peptidase 9; in series [4]) were greater than 100 µM, greater than 100 µM and 36.7 µM, respectively. In series [2], this compound had a half-life of 163 min. For the same compound, the bioavailability in series [3] is 35%.
For `C[C@H](c1nc(-c2ccc(NS(C)(=O)=O)cc2Cl)no1)[C@H](N)C(=O)N1CC[C@H](F)C1`, the IC50 against Dipeptidyl peptidase 8 was greater than 100 µM; against Dipeptidyl peptidase 9, greater than 100 µM; on Dipeptidyl peptidase 2, 2.57 µM; against Dipeptidyl peptidase 4, 19 nM.
Take `C[C@H](c1nc(-c2ccc(S(C)(=O)=O)cc2F)no1)[C@H](N)C(=O)N1CCCC1`: the half-inhibitory concentration (IC50) at Dipeptidyl peptidase 8 was greater than 100 µM; on Dipeptidyl peptidase 9, greater than 100 µM; on Dipeptidyl peptidase 2, 14.1 µM; at Dipeptidyl peptidase 4, 43 nM. In the series filed under Homo sapiens, the Ratio IC50 is greater than 320.
Turning to `C[C@H](c1nc(-c2ccc(S(C)(=O)=O)cc2Cl)no1)[C@H](N)C(=O)N1CC[C@H](F)C1`, the concentration for half-maximal inhibition (IC50) on Dipeptidyl peptidase 8 and against Dipeptidyl peptidase 9 was greater than 100 µM each time.
As to `C[C@H](c1nc(-c2ccc(Cl)cc2Cl)co1)[C@H](N)C(=O)N1CCCC1`, the IC50 against Dipeptidyl peptidase 8 is greater than 100 µM; against Dipeptidyl peptidase 9 it was greater than 100 µM; against Dipeptidyl peptidase 2, 1.05 µM; against Dipeptidyl peptidase 4 it was 1830 nM.
For the compound `C[C@H](c1nc(-c2ccc(OC(F)(F)F)cc2)no1)[C@H](N)C(=O)N1CCCC1`, the IC50 is greater than 100 µM against Dipeptidyl peptidase 8, greater than 100 µM against Dipeptidyl peptidase 9, 5.2 µM against Dipeptidyl peptidase 2 and 1790 nM at Dipeptidyl peptidase 4.
In [1], `C[C@H](c1nc(-c2ccc(S(C)(=O)=O)cc2Cl)no1)[C@H](N)C(=O)N1CCCC1` yielded a clearance of 6 mL/min/kg. The half-maximal inhibitory concentration (IC50) against Dipeptidyl peptidase 8 and against Dipeptidyl peptidase 9 was greater than 100 µM in each case. This compound showed a half-life in [2] of 49.2 min. The compound further showed a bioavailability in series [3] of 27%.
For `CC(C)C[C@H](c1nc(-c2ccc(S(C)(=O)=O)cc2Cl)no1)[C@H](N)C(=O)N1CC[C@H](F)C1`, the half-maximal inhibitory concentration (IC50) against Dipeptidyl peptidase 8 is greater than 100 µM; against Dipeptidyl peptidase 9 it was greater than 100 µM; on Dipeptidyl peptidase 2, 3.7 µM; on Dipeptidyl peptidase 4, 13 nM.
`CS(=O)(=O)c1ccc(-c2noc([C@@H](CC3CC3)[C@H](N)C(=O)N3CC[C@H](F)C3)n2)c(F)c1.O=C(O)C(F)(F)F`: the clearance in [1] worked out at 18.7 mL/min/kg. In addition, the results for the half-maximal inhibitory concentration (IC50) (at Dipeptidyl peptidase 8; at Dipeptidyl peptidase 9; in [4]) were greater than 100 µM, greater than 100 µM and 58.5 µM, respectively. Besides, the half-life in [2] is 78 min; in series [6], 105 min. Further, the bioavailability in series [5] stood at 95%; in [3], 36%.
Turning to `C[C@H](c1nc(-c2ccccc2Cl)no1)[C@H](N)C(=O)N1CCCC1`, the half-inhibitory concentration (IC50) at Dipeptidyl peptidase 8 was greater than 100 µM; against Dipeptidyl peptidase 9, greater than 100 µM; on Dipeptidyl peptidase 2, 2.2 µM; against Dipeptidyl peptidase 4, 990 nM.
Turning to `C[C@H](c1nc(-c2ccc(F)cc2Cl)no1)[C@H](N)C(=O)N1CCCC1`, the concentration for half-maximal inhibition (IC50) against Dipeptidyl peptidase 8 is greater than 100 µM; against Dipeptidyl peptidase 9, greater than 100 µM; against Dipeptidyl peptidase 2, 3 µM; on Dipeptidyl peptidase 4, 830 nM.
As for `C[C@H](c1nc(-c2ccc(S(=O)(=O)C(F)(F)F)cc2)no1)[C@H](N)C(=O)N1CCCC1`, the IC50 is greater than 100 µM against Dipeptidyl peptidase 8, greater than 100 µM against Dipeptidyl peptidase 9, 24.4 µM at Dipeptidyl peptidase 2 and 330 nM on Dipeptidyl peptidase 4.
The compound `CS(=O)(=O)c1ccc(-c2noc([C@@H](CC3CC3)[C@H](N)C(=O)N3CC[C@H](F)C3)n2)cc1.O=C(O)C(F)(F)F` showed a clearance in series [1] of 11.2 mL/min/kg. Also, the IC50 is greater than 100 µM at Dipeptidyl peptidase 8, greater than 100 µM against Dipeptidyl peptidase 9, 20.4 µM against Dipeptidyl peptidase 2 and 52 nM on Dipeptidyl peptidase 4. In series [2], this compound gave a half-life of 108 min. The compound further displayed a bioavailability in [3] of 49%.
For `C[C@H](c1nc(-c2ccc(C(F)(F)F)cc2)no1)[C@H](N)C(=O)N1CCCC1`, the half-maximal inhibitory concentration (IC50) against Dipeptidyl peptidase 8 was greater than 100 µM; on Dipeptidyl peptidase 9, greater than 100 µM; on Dipeptidyl peptidase 2, 6 µM; at Dipeptidyl peptidase 4, 1610 nM.
As for `C[C@H](c1nc(-c2ccc(NS(C)(=O)=O)cc2Cl)no1)[C@H](N)C(=O)N1CCCC1`, the IC50 is greater than 100 µM against Dipeptidyl peptidase 8, greater than 100 µM on Dipeptidyl peptidase 9, 1.4 µM against Dipeptidyl peptidase 2 and 8 nM against Dipeptidyl peptidase 4.
In the case of `CS(=O)(=O)c1ccc(-c2noc([C@@H](CC3CC3)[C@H](N)C(=O)N3CC[C@H](F)C3)n2)c(Cl)c1`, the concentration for half-maximal inhibition (IC50) against Dipeptidyl peptidase 8 and at Dipeptidyl peptidase 9 was greater than 100 µM throughout.

The values are drawn from ChEMBL document CHEMBL1137276, “Discovery of potent, selective, and orally bioavailable oxadiazole-based dipeptidyl peptidase IV inhibitors” (Bioorg Med Chem Lett, 2006).
